Test results as given in US20040191842A1, “Chemopreventive and therapeutic aspects of polyphenolic compositions and assays” (Medical College of Georgia Research Institute, Inc., priority 2002, published 2004).
Where “and” joins values, the source holds several entries; their conditions need not be identical. Equal values may be shown once.

Assays:
p21 = test: Immunoblot of p21 protein in NHEK; assay type: cell-based, human; details: EGCG 100 μM or higher, beyond 24 hours
Experimental: (§1) To identify additional factors those suppress EGCG -induced apoptosis and facilitate cell differentiation in NHEK, exponentially growing NHEK (Cambrex, Baltimore, Md.) were exposed to 100 μM EGCG for 0, 2, 6 and 24 hours, prior to total RNA isolation using the Qiagen RNeasy mini kit (Valencia, Calif.), which was followed by RT-PCR labeling and hybridization with the Human Apoptosis Macroarray membrane (Sigma-Genosys, The Woodlands, Tex.). Total cell lysates also were collected following a variety of EGCG treatments. The protein levels for caspase 14 and p21 were determined by immuno-blotting using antibodies specific for caspase 14 and p21 (Santa Cruz Biotechnology, Santa Cruz, Calif.).

OSC-2 cells = test: MTT assay (mitochondrial SDH activity), OSC2 (OSC-2) cells; details: increasing EGCG and 0.2 mg/ml GTPPs, 24 hour
Experimental: This method detects the activity of mitochondrial succinate dehydrogenase (SDH). In a 96-well plate, 1.5×10^4 cells were seeded in each well. After variety of treatments, 100 μl of 2% MTT was added to each well and the plate was incubated at 37° C. for 30 minutes. 100 μl of 0.2 M Tris (pH 7.7) with 4% formalin was added to each well. After incubation at room temperature for 5 minutes, liquid was removed and the wells were allowed to dry. Each well was rinsed with 200 μl water followed by addition of 100 μl DMSO (6.35% 0.1 N NaOH in DMSO) to each well. The coloration was measured by a Thermo MAX microplate reader (Molecular Devices Corp. Sunnyvale, Calif. using wavelengths of 562 nm. Experiments were repeated three times with triplicate samples for each experiment.
This method directly detects the activity of mitochondrial succinate dehydrogenase (SDH). Changes in SDH activity is a measurement of cell viability when stress is introduced in cell culture through chemical or physical means. Cells (1.5×10^4 cells/well) were seeded in a 96-well microplate and treated with the indicated doses of EGCG for 24 hours. After the treatment, the cells in each well were washed with 200 μl of phosphate-buffered saline (PBS), incubated with 100 μl of 2% MTT in a solution of 0.05 M Tris, 0.5 mM MgCl2, 2.5 mM CoCl2, and 0.25 M disodiumn succinate as substrate (Sigma) at 37° C. for 30 minutes. Cells were fixed in situ by the addition of 100 μl of 4% formalin in 0.2 M Tris (pH 7.7), and after a 5 minute incubation at room temperature liquid was removed and the wells were allowed to dry. Each well was rinsed with 200 μl water and cells were solubilized by the addition of 100 μl of 6.35% 0.1 N NaOH in DMSO. The colored formazan product was measured by a Thermo MAX micro plate reader (Molecular Devices Corp., Sunnyvale, Calif.) at a wavelength of 562 nm. […]
This method directly detects the activity of mitochondrial succinate dehydrogenase (SDH). […] Solubilized colored formazan product was measured using a Thermo MAX microplate reader (Molecular Devices Corp., Sunnyvale, Calif.) at a wavelength of 562 nm.

Apaf-1 = test: Western blot of Apaf-1 in mammary epithelial cells; assay type: cell-based, human; details: 15 μM EGCG, 24 h
Experimental: (§2) Western blot analysis. The keratinocytes and the mammary epithelial cells were placed in KGM-2 and MEGM, respectively, overnight prior to treatment. Cells were lysed, after 24-hour treatment, in RIPA buffer (1% NP-40, 1% sodium deoxycholate, 0.1% SDS, 0.15 M NaCl, 0.01 M sodium phosphate, pH 7.2, and 1% Trasylol) containing proteinase inhibitors (1 mM PMSF, 1 μg/ml each of aprotinin, leupeptin, and pepstatin). The concentration of protein in each sample was determined using the BioRad DC Protein Assay and spectrophotometry. 50 μg of protein from each sample and a BioRad molecular weight standard marker were run on a 10% SDS-PAGE, followed by transfer to nitrocellulose membranes. Nonspecific binding to the membranes was blocked with 10% nonfat milk. Primary polyclonal (rabbit) antibodies and a horseradish peroxidase-conjugated goat anti-rabbit secondary antibody were used in conjunction with the ECL Chemiluminescence Kit (Amersham Pharmacia Biotech, New Jersey) and membranes were exposed to radiographic films for detection. Western blots were digitized for comparison of the intensity for each band using the ImageTool image analysis software program (University of Texas Health Science Center, San Antonio, Tex.). The integrated density of each band was measured using identical 1480 pixel areas of each Apfa-1 or Actin band at a scale of densities from 0 to 255. […]

[1] = cited from earlier work
p57 = test: Western blot of p57 in mammary epithelial cells; assay type: cell-based, human; details: EGCG 15 to 200 μM, 24 h
Experimental: as §2

OSC2 cells = test: Cell growth assay, OSC2 cells; assay type: cell-based, human; details: 50 μM EGCG, day four
Experimental: Cell growth assay. Cells (2×10^5) were seeded in each T25 culture flask with 5 ml DMEM/F12 medium for 48 hours. The treatments were started with 50 μM EGCG for 24 hours, 48 hours and 96 hours. At each time point, the cell numbers were counted using a hemacytometer with the presence of Trypan blue.

MCF7 cells = test: BrdU incorporation assay, MCF7 cells; assay type: cell-based, human; details: increasing EGCG
Experimental: DNA synthesis analysis using BrdU incorporation method. The BrdU cell proliferation kit was purchased from Oncogene Research Products, Boston, Mass. Cells were culture in 96 well plates with 10^4 cells/well. After EGCG and GTPPs treatments, cells were labeled by BrdU, reacted with BrdU antibody and the color reaction was carried out according to the protocol provided by the manufacturer. The coloration was measure by a Thermo MAX microplate reader using wavelengths 450 nm-562 nm.

caspase 14 = test: Immunoblot of caspase 14 protein in NHEK; assay type: cell-based, human
Experimental: as §1

caspase 3 = test: Caspase 3 activity assay, caspase 3 null MCF7 cells; assay type: cell-based, human; details: increasing EGCG or 0.2 mg/ml GTPPs, 24 h
Experimental: Caspase 3 activity assay. The Caspase 3 Apoptosis Detection Kit was purchased from Santa Cruz Biotech. Inc. In a 24 well tissue culture plate, 10^5 cells/well of cells in triplicates were plated. […] To each well, 100 μl of 2×reaction buffer was added with […]. Finally, 5 μl of DEVD-AFC substrate was added to each well containing cell lysates. The reaction mixtures were incubated for 1 hour at 37° C. The caspase 3 activity in each well was measured using a fluorescence microplate reader set for 405 nm excitation and 505 nm emission.

SOD = SOD activity assay in cell lysates; assay type: cell-based, human; details: 50 μM EGCG, 30 minutes; NHEK, OSC-2, OSC-4
Experimental: Assays for SOD and catalase activities. Cells (1×10^6 cells/well) were incubated with or without EGCG (50 μM) in FilterCap 50 ml flasks (Nagel Nunc International, Rochester, N.Y.) for 30 minutes at 37° C. After the incubation, cells were harvested and disrupted in 100 μl of 10 mM Tris-HCl (pH 7.4) containing 0.1%(v/v) Triton X-100, 10 μg/ml leupeptin, 10 μg/ml pepstatin A and 100 mM phenylmethylsulfonyl fluoride by three cycles of freezing/thawing. After centrifugation at 17,000×g for 20 minutes at 4° C., the supernatants were used for SOD and catalase assays using the SOD Assay Kit-WST (Dojindo Molecular Technologies, Inc., Gaithersburg, Md.) and the AMPLEX Red Catalase Assay Kit (Molecular Probes), respectively. The activities of SOD and catalase were calibrated using a standard curve prepared with purified human SOD and catalase. The activities of SOD and catalase were expressed as units (U)/10^6 cells.
Assays for SOD and catalase activities. Cells (10^5 cells/well) were incubated with or without EGCG (50 μM) in 24-well culture plates for desirable time periods at 37° C. After the incubation, cells were harvested and disrupted in 100 μl of 10 mM Tris-HCl (pH 7.4) containing 0.1% (v/v) Triton ×-100, 10 μg/ml leupeptin, 10 μg/ml pepstatin A and 100 mM PMSF by three cycles of freezing/thawing. […] The activities of SOD and catalase were expressed as units (U)/10^6 cells.

O=C(O[C@@H]1Cc2c(O)cc(O)cc2O[C@@H]1c1cc(O)c(O)c(O)c1)c1cc(O)c(O)c(O)c1 [EGCG, (−)-epigallocatechin-3-gallate]
p21 protein level, of controls (p21): below 50% | SDH activities (OSC-2 cells): decreased | Apaf-1 protein level increase above control (densitometry) (Apaf-1): 47% | EGCG secreted from human saliva ([1]; after two to three cups of green tea): ≤ 50 μM and ≤ 22.9 μg/ml | absorption through the oral mucosa ([1]; humans): rapidly absorbed through the oral mucosa | p57 levels (p57): no significant changes | cell number compared to controls (OSC2 cells): 50% | BrdU incorporation (MCF7 cells): able in incorporate BrdU efficiently | production of immunoreactive caspase 14 increased (caspase 14; 30 μM EGCG (Example 10)): 5 fold | increase in caspase 14 protein (caspase 14; 30 μM EGCG, 48 hours): 26 fold | increase in caspase 14 protein (caspase 14; 100 μM EGCG, 24 hours): 2 fold | increase in caspase 14 protein (caspase 14; 100 μM EGCG, 48 hours): 5 folds | increase in caspase 14 protein (caspase 14; EGCG at or below 50 μM, 24 hours): > 5 fold | caspase 3 activity (caspase 3): did not show caspase 3 activity | SOD activity (SOD): did not alter SOD activity
